From ChEMBL document CHEMBL1148924, “Marine sesquiterpenoids that inhibit the lyase activity of DNA polymerase beta” (J Nat Prod, 2004) come the findings set out here.

The target in assay [1] is T1, M-phase inducer phosphatase 2 (Homo sapiens) (UniProt P30305).
T1 sequence (whole entry): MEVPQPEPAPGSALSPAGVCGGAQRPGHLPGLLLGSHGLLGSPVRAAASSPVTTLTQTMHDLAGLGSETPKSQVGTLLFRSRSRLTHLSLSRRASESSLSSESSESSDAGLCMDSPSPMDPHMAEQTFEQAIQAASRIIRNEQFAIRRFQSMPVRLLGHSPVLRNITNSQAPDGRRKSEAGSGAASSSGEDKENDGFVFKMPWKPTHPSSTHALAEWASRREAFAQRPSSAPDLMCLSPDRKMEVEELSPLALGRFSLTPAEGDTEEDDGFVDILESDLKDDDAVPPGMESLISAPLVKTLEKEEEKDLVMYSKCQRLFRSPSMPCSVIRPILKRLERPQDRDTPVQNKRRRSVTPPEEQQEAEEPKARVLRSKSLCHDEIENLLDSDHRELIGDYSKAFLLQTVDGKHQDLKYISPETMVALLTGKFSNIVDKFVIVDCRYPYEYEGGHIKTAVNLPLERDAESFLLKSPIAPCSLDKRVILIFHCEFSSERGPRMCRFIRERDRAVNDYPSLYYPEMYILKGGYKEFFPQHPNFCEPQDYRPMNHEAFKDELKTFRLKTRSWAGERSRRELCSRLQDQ
In words: (§1) Inhibition of GST-fused human recombinant Cdc25B2 (275-539) catalytic domain.

Another assay concerns the target DNA polymerase beta (Homo sapiens, UniProt P06746). Description: Inhibition of DNA polymerase beta lyase activity.
A further assay has as its system A2780. In words: Cytotoxicity against human A2780 cells. In kind it is functional, cell-based.
Assay [2] concerns the target T2, M-phase inducer phosphatase 2 (Homo sapiens, UniProt P30305).
T2 sequence (P30305 whole entry): T1 sequence (whole entry)
The description is as §1.

In general, IC50 refers to the concentration needed to halve the response being measured.

SMILES strings stand for the structures. The source made the active and inactive calls. The calls are words filed in the database; no cut-off is given here.

Consider `O=c1ccn([C@H]2C[C@H](O)[C@@H](CO)O2)c(=O)[nH]1`, for which the outcome (in assay [1]; on DNA polymerase beta; in the assay with A2780) was inactive.
For the compound `C=C1CCC[C@H]2[C@](C)(Cc3cc(C(=O)OC)ccc3O)[C@@H](C)CC[C@]12C`, the outcome (in assay [1]; at DNA polymerase beta; in the assay on A2780) was inactive.
For `C=C1CCC[C@H]2[C@](C)(Cc3cc(C(=O)OC)ccc3OCC=C(C)C)[C@@H](C)CC[C@]12C`, the result (in assay [1]; at DNA polymerase beta; in the assay with A2780) was inactive.
Take `C=C1CCC[C@H]2[C@](C)(CC3=C(O)C(=O)C=C(OC)C3=O)[C@@H](C)CC[C@]12C` [ILIMAQUINONE]: the half-maximal inhibitory concentration (IC50) in assay [2] is 92 µM; on DNA polymerase beta it was 45.2 µM; in the assay on A2780 it was 10.9 µM.
